Test results taken from patent US20250197420A1, “MACROCYCLIC COMPOUNDS, COMPOSITIONS, AND METHODS OF USING THEREOF” (Sionna Therapeutics Inc., priority 2022, published 2025).

Assays:
[1] = target: T1, Purified recombinant NBD1 (Homo sapiens, UniProt P13569); test: Aggregation analysis using differential static light scattering (DSLS): thermal stability of NBD1; assay type: binding; conditions: NBD1 0.2 mg/ml; Tagg of compound well minus average Tagg of DMSO control wells
T1 construct: Purified recombinant NBD1 was produced using previously described methods; made in house
T1 sequence (P13569 423-646 limits assumed): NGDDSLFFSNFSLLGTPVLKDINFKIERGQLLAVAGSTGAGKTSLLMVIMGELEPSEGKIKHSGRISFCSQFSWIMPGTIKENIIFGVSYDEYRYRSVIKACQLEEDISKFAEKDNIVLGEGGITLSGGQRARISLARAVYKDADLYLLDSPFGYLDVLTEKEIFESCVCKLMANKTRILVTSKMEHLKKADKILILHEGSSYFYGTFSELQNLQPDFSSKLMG
Procedure, shortened: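 Recombinant NBD1 at 0.2 mg/ml in Tris/NaCl/MgCl2 buffer with 2 mM ATP, 2 mM DTT, 1% glycerol, pH 7.6, was incubated with compound and heated at 1 °C/min to 70 °C while static light scattering was monitored. Tagg was taken from the curve inflection point and reported as ΔTagg relative to DMSO controls.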

[2] = tested on: Primary human bronchial epithelial cells from a ΔF508 homozygous CF donor (CF-HBE cells); test: TECC24 recording of CFTR-mediated transepithelial chloride transport, AUC fold over benchmark VX-809 @10 μM; assay type: cell-based; conditions: 48 hours incubation, AUC of forskolin-stimulated IEQ
Procedure, shortened: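 CF-HBE cells on inserts were treated with compound for 48 h at 36.5 °C, then recorded in current-clamp with benzamil 10 μM, forskolin 10 μM, and finally CFTR inhibitor-172 20 μM in pH 7.4 Hepes saline. Equivalent Cl− current AUC between forskolin and inhibitor addition is expressed as a ratio to VX-809 AUC: A <3, B 3–6, C 6–20.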

Row | SMILES | DSLS (ΔTagg) [1] | TECC (test agent AUC divided by VX-809 AUC) [2]
1 | CN1CC(C)(C)CCCC(C)(c2cccc(CCC(=O)O)c2)c2nnc([nH]2)-c2cc(ccc2F)Oc2c(F)cc3[nH]ccc3c2CCC1=O (centres unmarked) [Compound 44, 3-[3-(23,29-Difluoro-6,10,10,12-tetramethyl-13-oxo-25-oxa-3,4,12,20,31-pentazapentacyclo[24.3.1.12,5.016,24.017,21]hentriaconta-1(30),2,4,16,18,21,23,26,28-nonaen-6-yl)phenyl]propanoic acid] | C (a value greater than 10 °C and less than or equal to 25 °C is marked “C”) | C (a value between 6 and 20 is marked “C”)
2 | CC1(C)CCC(C)(c2cccc(CCC(=O)O)c2)c2cnc([nH]2)-c2cc(ccc2F)Oc2c(F)cc3[nH]ccc3c2CCNC(=O)OC1 (centres unmarked) [Compound 45, 3-[3-(23,29-Difluoro-6,9,9-trimethyl-12-oxo-11,25-dioxa-3,13,20,31-tetrazapentacyclo[24.3.1.12,5.016,24.017,21]hentriaconta-1(30),2,4,16(24),17(21),18,22,26,28-nonaen-6-yl)phenyl]propanoic acid] | C (a value greater than 10 °C and less than or equal to 25 °C is marked “C”) | B (a value between 3 and 6 is marked “B”)
3 | CN1CC(C)(C)CCCC(C)(c2cccc(CCc3nnn[nH]3)c2)c2cnc([nH]2)-c2cc(ccc2F)Oc2c(F)cc3[nH]ccc3c2CCC1=O (centres unmarked) [Compound 52, 23,29-Difluoro-6,10,10,12-tetramethyl-6-[3-[2-(1H-tetrazol-5-yl)ethyl]phenyl]-25-oxa-3,12,20,31-tetrazapentacyclo[24.3.1.12,5.016,24.017,21]-hentriaconta-1(30),2,4,16,18,21,23,26,28-nonaen-13-one] | C (a value greater than 10 °C and less than or equal to 25 °C is marked “C”) | A (a TECC value less than 3 is marked “A”)
4 | CN1CC(C)(C)CCCCC(C)(c2cccc(CCC(=O)O)c2)c2cnc([nH]2)-c2cc(ccc2F)Oc2c(F)cc3[nH]ccc3c2CCC1=O (centres unmarked) [Compound 61, 3-[3-(24,30-Difluoro-6,11,11,13-tetramethyl-14-oxo-26-oxa-3,13,21,32-tetrazapentacyclo[25.3.1.12,5.017,25.018,22]dotriaconta-1(31),2,4,17,19,22,24,27,29-nonaen-6-yl)phenyl]propanoic acid] | C (a value greater than 10 °C and less than or equal to 25 °C is marked “C”) | B (a value between 3 and 6 is marked “B”)
5 | CN1CC(C)(C)CCCCC(C)(c2ccccc2)c2cnc([nH]2)-c2cc(ccc2F)Oc2c(F)cc3[nH]ccc3c2CCC1=O (centres unmarked) [Compound 62, 24,30-Difluoro-6,11,11,13-tetramethyl-6-phenyl-26-oxa-3,13,21,32-tetrazapentacyclo[25.3.1.12,5.017,25.018,22]dotriaconta-1(31),2,4,17,19,22,24,27,29-nonaen-14-one] | A (an ΔTagg value less than or equal to 5 °C is marked “A”) | A (a TECC value less than 3 is marked “A”)
6 | CN1CC(C)(C)CCCC(C)(c2ccc(CC(=O)O)cc2)c2cnc([nH]2)-c2cc(ccc2F)Oc2c(F)cc3[nH]ccc3c2CCC1=O (centres unmarked) [Compound 63, 2-[4-(23,29-Difluoro-6,10,10,12-tetramethyl-13-oxo-25-oxa-3,12,20,31-tetrazapentacyclo[24.3.1.12,5.016,24.017,21]hentriaconta-1(30),2,4,16,18,21,23,26,28-nonaen-6-yl)phenyl]acetic acid] | B (a value above 5 °C and less than or equal to 10 °C is marked “B”) | A (a TECC value less than 3 is marked “A”)
7 | CN1CCCCC(C)(c2cccc(CCC(=O)O)c2)c2cnc([nH]2)-c2cc(ccc2F)Oc2c(F)cc3[nH]ccc3c2CC1=O (centres unmarked) [Compound 68, 3-[3-(21,27-Difluoro-6,11-dimethyl-12-oxo-23-oxa-3,11,18,29-tetrazapentacyclo[22.3.1.12,5.014,22.015,19]nonacosa-1(28),2,4,14,16,19,21,24,26-nonaen-6-yl)phenyl]propanoic acid] | B (a value above 5 °C and less than or equal to 10 °C is marked “B”) | A (a TECC value less than 3 is marked “A”)
8 | CN1CC(C)(C)CCCC(C)(c2cccc(CCC(=O)O)c2)c2cnc([nH]2)-c2cc(ccc2F)Oc2c(F)c(F)c3[nH]ccc3c2CCC1=O (centres unmarked) [Compound 70, 3-[3-(22,23,29-Trifluoro-6,10,10,12-tetramethyl-13-oxo-25-oxa-3,12,20,31-tetrazapentacyclo[24.3.1.12,5.016,24.017,21]hentriaconta-1(30),2,4,16,18,21,23,26,28-nonaen-6-yl)phenyl]propanoic acid] | C (a value greater than 10 °C and less than or equal to 25 °C is marked “C”) | A (a TECC value less than 3 is marked “A”)
9 | CN1CC(C)(C)CCCC(C)(c2ccccc2)c2cnc([nH]2)-c2cc(ccc2F)Oc2c(F)c(F)c3[nH]ccc3c2CCC1=O (centres unmarked) [Compound 71, 22,23,29-Trifluoro-6,10,10,12-tetramethyl-6-phenyl-25-oxa-3,12,20,31-tetrazapentacyclo[24.3.1.12,5.016,24.017,21]hentriaconta-1(30),2,4,16,18,21,23,26,28-nonaen-13-one] | A (an ΔTagg value less than or equal to 5 °C is marked “A”) | A (a TECC value less than 3 is marked “A”)
10 | CN1Cc2c(c(F)cc3[nH]ccc23)Oc2ccc(F)c(c2)-c2ncc([nH]2)C(C)(c2cccc(CCC(=O)O)c2)CCCOCC(C)(C)C1=O (centres unmarked) [Compound 73, 3-[3-(23,29-difluoro-6,12,12,14-tetramethyl-13-oxo-10,25-dioxa-3,14,20,31-tetrazapentacyclo[24.3.1.12,5.016,24.017,21]hentriaconta-1(30),2,4,16,18,21,23,26,28-nonaen-6-yl)phenyl]propanoic acid] | C (a value greater than 10 °C and less than or equal to 25 °C is marked “C”) | B (a value between 3 and 6 is marked “B”)
11 | CN1Cc2c(c(F)cc3[nH]ccc23)Oc2ccc(F)c(c2)-c2ncc([nH]2)C(C)(c2ccccc2)CCCOCC(C)(C)C1=O (centres unmarked) [Compound 74, 23,29-difluoro-6,12,12,14-tetramethyl-6-phenyl-10,25-dioxa-3,14,20,31-tetrazapentacyclo[24.3.1.12,5.016,24.017,21]hentriaconta-1(30),2,4,16,18,21,23,26,28-nonaen-13-one] | A (an ΔTagg value less than or equal to 5 °C is marked “A”) | A (a TECC value less than 3 is marked “A”)
12 | CC1(c2cccc(CCC(=O)O)c2F)CCCCOC(=O)NCCc2c(c(F)cc3[nH]ccc23)Oc2ccc(F)c(c2)-c2ncc1[nH]2 (centres unmarked) [Compound 80, 3-[3-(23,29-Difluoro-6-methyl-12-oxo-11,25-dioxa-3,13,20,31-tetrazapentacyclo[24.3.1.12,5.016,24.017,21]hentriaconta-1(30),2,4,16,18,21,23,26,28-nonaen-6-yl)-2-fluoro-phenyl]propanoic acid] | C (a value greater than 10 °C and less than or equal to 25 °C is marked “C”) | B (a value between 3 and 6 is marked “B”)
13 | CC1(c2cccc(CCC(=O)O)c2)CNC(=O)OCCCCc2c(c(F)cc3[nH]ccc23)Oc2ccc(F)c(c2)-c2ncc1[nH]2 (centres unmarked) [Compound 83, 3-[3-(22,28-Difluoro-6-methyl-9-oxo-10,24-dioxa-3,8,19,30-tetrazapentacyclo[23.3.1.12,5.015,23.016,20]triaconta-1(29),2,4,15,17,20,22,25,27-nonaen-6-yl)phenyl]propanoic acid] | A (an ΔTagg value less than or equal to 5 °C is marked “A”) | A (a TECC value less than 3 is marked “A”)
14 | CN1CCCc2c(c(F)cc3[nH]ccc23)Oc2ccc(F)c(c2)-c2ncc([nH]2)C(C)(c2cccc(CCC(=O)O)c2)CCCOC1=O (centres unmarked) [Compound 84, 3-[3-(23,29-Difluoro-6,12-dimethyl-11-oxo-10,25-dioxa-3,12,20,31-tetrazapentacyclo[24.3.1.12,5.016,24.017,21]hentriaconta-1(30),2,4,16(24),17(21),18,22,26,28-nonaen-6-yl)phenyl]propanoic acid] | C (a value greater than 10 °C and less than or equal to 25 °C is marked “C”) | B (a value between 3 and 6 is marked “B”)
15 | O=C(O)CCc1cccc(C2CCCCCNC(=O)OCc3c(c(F)cc4[nH]ccc34)Oc3ccc(F)c(c3)-c3ncc2[nH]3)c1F (centres unmarked) [Compound 85, 3-[3-(23,29-Difluoro-13-oxo-14,25-dioxa-3,12,20,31-tetrazapentacyclo[24.3.1.12,5.016,24.017,21]hentriaconta-1(30),2,4,16,18,21,23,26,28-nonaen-6-yl)-2-fluoro-phenyl]propanoic acid] | C (a value greater than 10 °C and less than or equal to 25 °C is marked “C”) | B (a value between 3 and 6 is marked “B”)
16 | CC1(c2cccc(CCC(=O)O)c2)CCCCNC(=O)OCCc2c(c(F)cc3[nH]ccc23)Oc2ccc(F)c(c2)-c2ncc1[nH]2 (centres unmarked) [Compound 86, 3-[3-(23,29-Difluoro-6-methyl-12-oxo-13,25-dioxa-3,11,20,31-tetrazapentacyclo[24.3.1.12,5.016,24.017,21]hentriaconta-1(30),2,4,16(24),17(21),18,22,26,28-nonaen-6-yl)phenyl]propanoic acid] | C (a value greater than 10 °C and less than or equal to 25 °C is marked “C”) | C (a value between 6 and 20 is marked “C”)
